Marks after values point to notes of the source that are not given here.
What was measured:
[1] = tested on: permanent 2-VO rats (chronic cerebral hypoperfusion); test: Morris water maze in permanent 2-VO (BCCAO) rats; format: in vivo, rat; details: for probe trial: time in the platform quadrant and time to cross the platform location / escape latency in the water maze task: 2-VO rats; for probe trial: time in the platform quadrant and time to cross the platform location: compared to 2-VO animals; for escape latency in the water maze task: vs vehicle
Source text: Chronic cerebral hypoperfusion was proceeded by a permanent, bilateral occlusion of the common carotid arteries (2-VO) of adult rats. The rats were anesthetized with 10% trichloro-acetaldehyde, and temperature probe was inserted into the rectum, and a separate heating lamp was used to maintain rectal temperature at normothermic level. After a midline neck skin incision, the common carotid artery were exposed and ligated by a 5-0 nylon suture.
Rats were randomly divided into six experimental groups (20 rats/each group): one sham-operated group, one vehicle control group, one piracetam-treated group (600 mg/kg), and three dl-PHPB-treated groups (13, 39, and 129 mg/kg). In 10 days after onset of 2-VO, drugs and vehicle were administered orally to rats for 21 days (one time/each day). The spatial learning and memory capability of rats were detected by Morris water maze in the 25-30 days after operation. The Morris water test was commenced at 40 min after drugs treated. The biochemical and pathology assays were conducted later (in 24 h) after behavioral tests.
Subjects were tested in a Morris water maze. This test is based on a standardized assessment of spatial learning ability. The water maze apparatus consisted of a circular, stainless pool (120 cm in diameter, 60 cm in height). It was placed in a dimly lit, sound-proof test room. Multiple distant cues around the room (window, cabinets, furniture) were kept in the same location throughout the experiments. The water was filled to a depth of 40 cm at 25±1° C. and was made opaque by adding milk powder to prevent visualization of the platform. A transparent platform (10 cm diameter) was put 1.5 cm below the surface of the water. The tank was divided into four quadrants with the platform in a fixed position in one quadrant. The subjects were placed into the maze facing the pool wall and were allowed two trials per day, 60 s per trial, to find the hidden platform. If the subject found the platform within the 60 s, it was given a 10-s rest period on the platform between trials. If the pedestal was not located within the time allotted, the subject was placed on to the platform and allowed 10 s until the next trial. The escape latency (time to reach the platform) was used to assess acquisition of the water maze task. Sessions were repeated for five consecutive days. On the sixth day, the platform was removed and the rat was allowed to search for the platform for 60 s (probe test). The time in the platform quadrant and latency time to cross platform location were recorded to measure the spatial learning ability without the influence of chance encounters with the platform. The Morris water maze sessions were recorded with a video camera for offline analysis.

[2] = tested on: cortex and hippocampus neurons of 2-VO rats; test: HE staining, neuronal morphology in 2-VO rats; format: in vivo, rat; details: 21 days
Experimental: Four rats in each group were anesthetized with sodium pentobarbital (100 mg/kg, intraperitoneal injection), and perfused transcardially with cold saline, followed by 300 ml of 4% paraformaldehyde in 0.01 M phosphate buffer (pH 7.4). After these procedures, the brains were removed and stored in the 0.01 M phosphate buffer (pH 7.4) with 4% paraformaldehyde and 30% sucrose at 4° C. until fully equilibrated. Then they were postfixed at 4° C., dehydrated and embedded in paraffin blocks. Coronal sections of 8 μm were stained with hematoxylin-eosin and Klüver-Barrera.
HE staining in the cytoplasm and nucleus in different colors, you can clearly see the general shape of the cells. […] Above that, dl-PHPB could protect and care the damage of cortex and hippocampus neurons caused by chronic cerebral hypoperfusion.

[3] = tested on: AChE; test: AChE activity of hippocampus from SAMP8 mice; format: in vivo; details: treatment up to 35 days, tendency only
Experimental: SAMP8 were divided into three experimental groups randomly: one vehicle control group, and two dl-PHPB-treated groups (50, and 160 mg/kg). Drugs and vehicle were administered orally to SAMP8 mice for 35 days (one time/each day). The spatial learning and memory abilities of SAMP8 mice were detected by Morris water maze and DTT-2 jumping apparatus in 31-35 days. The testing was commenced at 40 min after drugs treated. The biochemical and pathology assays conducted later (in 24 h) after behavioral testing.
The methods as described previously.

[4] = dl-PHPB 13 mg/kg, 1st of 5 M/R/T/L column groups (day not printed)
[5] = dl-PHPB 13 mg/kg, 2nd of 5 M/R/T/L column groups (day not printed)
[6] = dl-PHPB 13 mg/kg, 3rd of 5 M/R/T/L column groups (day not printed)
[7] = dl-PHPB 13 mg/kg, 4th of 5 M/R/T/L column groups (day not printed)
[8] = dl-PHPB 13 mg/kg, 5th of 5 M/R/T/L column groups (day not printed)
[9] = dl-PHPB 39 mg/kg, 1st of 5 M/R/T/L column groups (day not printed)
[10] = dl-PHPB 39 mg/kg, 2nd of 5 M/R/T/L column groups (day not printed)
[11] = dl-PHPB 39 mg/kg, 3rd of 5 M/R/T/L column groups (day not printed)
[12] = dl-PHPB 39 mg/kg, 4th of 5 M/R/T/L column groups (day not printed)
[13] = dl-PHPB 39 mg/kg, 5th of 5 M/R/T/L column groups (day not printed)
[14] = dl-PHPB 129 mg/kg, 1st of 5 M/R/T/L column groups (day not printed)
[15] = dl-PHPB 129 mg/kg, 2nd of 5 M/R/T/L column groups (day not printed)
[16] = dl-PHPB 129 mg/kg, 3rd of 5 M/R/T/L column groups (day not printed)
[17] = dl-PHPB 129 mg/kg, 4th of 5 M/R/T/L column groups (day not printed)
[18] = dl-PHPB 129 mg/kg, 5th of 5 M/R/T/L column groups (day not printed)

## CCCCC(O)c1ccccc1C(=O)[O-].[K+] (racemic) [dl-PHPB, Potassium 2-(1-Hydroxypentyl)-benzoate]
[1]; 13 mg/kg orally 21 days
  probe trial: time in the platform quadrant and time to cross the platform location: markedly showed ameliorative effect
[1]; 13 mg/kg orally daily for 21 days
  escape latency in the water maze task: did not differ from the vehicle control animals
[1]; 39 mg/kg orally 21 days
  probe trial: time in the platform quadrant and time to cross the platform location: markedly showed ameliorative effect
[1]; 39 mg/kg orally daily for 21 days
  escape latency in the water maze task: significantly rescued learning impairment
[1]; 129 mg/kg orally daily for 21 days
  escape latency in the water maze task: significantly rescued learning impairment
[1]; [4]
  search strategy times, linear mode (L): 1
  search strategy times, marginal mode (M): 11
  search strategy times, random mode (R): 13
  search strategy times, tendency mode (T): 11
[1]; [5]
  search strategy times, linear mode (L): 6
  search strategy times, marginal mode (M): 3
  search strategy times, random mode (R): 11
  search strategy times, tendency mode (T): 16
[1]; [6]
  search strategy times, linear mode (L): 5
  search strategy times, marginal mode (M): 0
  search strategy times, random mode (R): 10
  search strategy times, tendency mode (T): 21
[1]; [7]
  search strategy times, linear mode (L): 7
  search strategy times, marginal mode (M): 0
  search strategy times, random mode (R): 9
  search strategy times, tendency mode (T): 20
[1]; [8]
  search strategy times, linear mode (L): 4
  search strategy times, marginal mode (M): 0
  search strategy times, random mode (R): 5
  search strategy times, tendency mode (T): 26
[1]; [9]
  search strategy times, linear mode (L): 2
  search strategy times, marginal mode (M): 7
  search strategy times, random mode (R): 15
  search strategy times, tendency mode (T): 12
[1]; [10]
  search strategy times, linear mode (L): 4
  search strategy times, marginal mode (M): 3
  search strategy times, random mode (R): 9
  search strategy times, tendency mode (T): 18
[1]; [11]
  search strategy times, linear mode (L): 3
  search strategy times, marginal mode (M): 1
  search strategy times, random mode (R): 13
  search strategy times, tendency mode (T): 17
[1]; [12]
  search strategy times, linear mode (L): 9
  search strategy times, marginal mode (M): 0
  search strategy times, random mode (R): 7
  search strategy times, tendency mode (T): 18
[1]; [13]
  search strategy times, linear mode (L): 17*
  search strategy times, marginal mode (M): 0
  search strategy times, random mode (R): 4
  search strategy times, tendency mode (T): 13
[1]; [14]
  search strategy times, linear mode (L): 4
  search strategy times, marginal mode (M): 4
  search strategy times, random mode (R): 16
  search strategy times, tendency mode (T): 10
[1]; [15]
  search strategy times, linear mode (L): 1
  search strategy times, marginal mode (M): 2
  search strategy times, random mode (R): 12
  search strategy times, tendency mode (T): 19
[1]; [16]
  search strategy times, linear mode (L): 6
  search strategy times, marginal mode (M): 0
  search strategy times, random mode (R): 7
  search strategy times, tendency mode (T): 21
[1]; [17]
  search strategy times, linear mode (L): 7
  search strategy times, marginal mode (M): 1
  search strategy times, random mode (R): 5
  search strategy times, tendency mode (T): 20
[1]; [18]
  search strategy times, linear mode (L): 9
  search strategy times, marginal mode (M): 0
  search strategy times, random mode (R): 2
  search strategy times, tendency mode (T): 23
[2]; dl-PHPB 13 mg/kg
  neuronal morphology, HE staining: only minor improve the abnormal shape of cortical neurons
[2]; dl-PHPB 39 mg/kg
  neuronal morphology, HE staining: significantly improve the cortex, hippocampus area CA1 and CA3 neurons form
[2]; dl-PHPB 129 mg/kg
  neuronal morphology, HE staining: improve the cortex and hippocampus CA1 area neuronal morphologic abnormalities
[3]
  AChE activity in the hippocampus: might decrease AChE activity

Reference: patent US20110224300A1, “USE OF POTASSIUM 2-(a- HYDROXYPENTYL) BENZOATE IN THE MANUFACTURE OF MEDICAMENTS FOR PREVENTING AND/OR TREATING SENILE [sequence]” (Institute of Mataria Medica, Chinese Academy of Me, priority 2008, published 2011)
